The results in this text go back to article PMC12552953, “SA-XV, a 15-amino acid fragment of host defense peptide S100A12, targets mitochondria and is protective against fungal infections” (The Journal of Biological Chemistry, 2025).

Like-named read-outs stand apart in the source and are kept apart here. Where no end group is shown, it is not given here.

The test system of one series is F. solani. Briefly: Murine model of F. solani keratitis. The conditions noted are these: 48 h postinfection; SA-XV at 0 and 6 h or 6 and 18 h, AmpB at 0 and 6 h.
In series [1] the test system is T7 RNA polymerase, plasmid DNA. Briefly: In vitro transcription assay. It is filed as biochemical. The settings on record: 2 h, 37 °C, agarose gel. How it is done: In vitro transcription assay was done using the commercial kit Riboprobe System-T7 (Promega), according to the instructions for positive control samples but adding different concentrations of peptide to the reactions. As a negative control, the DNA template was omitted from the reaction mix. After 2 h of incubation at 37 °C, samples were run in a 1.2% agarose gel in TAE buffer and imaged using the Gel Doc System (Bio-Rad).

Series [2] can be described thus: in vitro. The settings on record: 25% fetal bovine serum in RPMI media.
Protocol: mentioned previously (5).
supplemented with 25% FBS at 37 °C for 15 min. 100 µl aliquots were taken at different time
intervals (0, 30, 60, 120, 180, and 240 min). 200 µl of 96% ethanol was added to precipitate the
serum followed by centrifugation at 12000 x g for 2 min. 20 µl of the supernatant was subjected
to a LC-20AT reverse phase HPLC system (SHIMADZU, Japan) equipped with Phenomenix
C18 column (250x10 mm, pore size 100 Å, particle size 5 µm), at room temperature, using
acetonitrile and water with 0.1 % TFA as the solvents. A flow rate of 1ml/min was maintained.
The percentage of peptide remaining in the supernatant at different time intervals were analysed
by peak integration using SPINCHROME CFR software, and the area obtained was normalized with respect to the free peptide.
The conditions of series [3]: increased concentration of SA-XV.
Protocol: Fungal model membrane mimics composing 5:4:3 POPC/POPE/ERG were created following the standard protocol. […] The lipid film was created after drying in a stream of nitrogen gas and lyophilizing overnight. The lipid film was then hydrated with 70 mM calcein dissolved in 10 mM Tris buffer (pH 7.4), followed by vigorous vortexing for 30 min and subjecting to five freeze–thaw cycles in liquid nitrogen and lukewarm water to obtain the dye-entrapped vesicles. The vesicles were then passed through a 100-nm polycarbonate membrane filter stacked in a mini extruder (Avanti Polar Lipids) set up to obtain LUVs. […]
Dye-encapsulated liposomes were suspended in an extravesicular buffer containing 10 mM Tris buffer and 100 mM NaCl (pH 7.4). The leakage of calcein caused by liposome disruption was analyzed by fluorescence emission at 519 nm using a JASCO F-8500 fluorescence spectrophotometer. […] S100A12 was added at functional concentrations, and enhancement in fluorescence was measured. […] Percentage leakage was calculated using the equation. […]
where, F0, F, and FT denote the basal fluorescence intensity, fluorescence intensity after addition of peptides, and maximum fluorescence intensity obtained after addition of 0.1% Triton X-100, respectively.
The test system of a further series is Fusarium solani. In kind it is cell-based. The conditions noted are these: 48 h. How it is done: (§1) The ocular clinical isolates of F. solani (n = 5) and C. albicans (n = 5) were obtained from Jhaveri Microbiology Centre, LVPEI, India. The isolates were grown at 29 °C in Sabouraud dextrose broth (SDB; Himedia) for 48 h. Fusarium conidia (spores) were harvested as described before ([69]), centrifuged at 8000 rpm for 15 min to pellet the conidia, washed in 10 mM phosphate buffer (pH 7.4) twice, and resuspended in the same. Candida was grown in SDB overnight, centrifuged, washed, and resuspended similarly. F. solani and C. albicans (1 × 10^4 conidia) were grown in the presence or absence of different concentrations of SA-XV in SDB in a 96-well microtiter plate and incubated at 29 °C for 24 h. Negative controls consisting of fungus only and a positive control consisting of fungus treated with AmpB (55 μM) were incubated simultaneously. The culture was then diluted accordingly and plated in potato dextrose agar (PDA) plates and incubated further for 24 h. The effect of the peptide was determined by quantifying the CFUs on the PDA plates. The effect of SA-XV on A. flavus was also determined similarly. All the experiments were performed at least thrice and in triplicate.

Series [4] deals with Fusarium spp. ocular clinical isolates. It is filed as cell-based. The settings on record: 48 h. How it is done: as §1
For a further series, the system named is Candida albicans. It is filed as cell-based. The settings on record: 48 h. As to the method:
as §1

The test system of series [5] is sinonasal epithelial cells (SNEC). In kind it is cell-based. How it is done: (§2) Supplementary experimental procedures
(§3) Cell culture and in vitro scratch assay
(§4) Aldrich, St. Louis, MO) as described earlier (3). In brief, cells (2x10^4 cells/well) were seeded into 96 well plates and cultured overnight. Cells were treated with different concentration of […]
(§5) reader SpectraMax M3 (Softmax Pro 6.3). […]

Series [6] relates to peripheral blood mononuclear cells (PBMC). It is filed as cell-based. As to the method:
as §2, §3, §4, §5

For series [7] the following is noted: n = 3.
A short description of series [8]: in vitro. It is filed as cell-based, human. The settings on record: human. As to the method: as §2, §3, §4, §5
The subject of series [9] is human corneal epithelial cells (HCEC). Kind of series: in vitro. It is filed as cell-based. As to the method:
as §2, §3, §4, §5

The test system of a further series is C. albicans. It is filed as cell-based, Candida albicans. How it is done: Fusarium spp. or Candida spp. (1 × 10^4 conidia) were incubated with 60 μM of FITC-SA-XV at 4 °C or 29 °C or different time points in SDB. The conidia were then washed three times with Milli-Q water and fixed using 4% paraformaldehyde. In some experiments, DAPI (Vectashield) or MitoTracker (Invitrogen) were used to stain specific cell organelles. In a different experiment, cytochrome c was detected in peptide-treated or untreated cells by incubating with anti–cytochrome c antibody (1:100 dilution; BioLegend), followed by Alexa Fluor 488 secondary antibody (1:1000 dilution; Thermo Fisher Scientific). In a separate experiment, the spores were incubated with SA-XV for 4 h in the presence or absence of FD (SR LifeScience Solution) of different molecular weights, washed with Milli-Q water, and fixed using 4% paraformaldehyde. The conidia were imaged using a 63× objective in a confocal microscope (LSM 880; Zeiss).

Another series deals with C. albicans biofilm. In kind it is cell-based, Candida albicans. The settings on record: 24 h, 60 μM.
For series [10] the following is noted: peptide-free 41.6 ppm.
Protocol: A single 90° pulse ^31P solid-state NMR experiment was performed on an Agilent NMR spectrometer (DD2) equipped with a 4 mm MAS HXY Solid Probe. Resonance frequencies were 699.88 MHz and 283.31 MHz for ^1H and ^31P, respectively. The TPPM ^1H-decoupled condition was used. LUVs were kept in a diameter of 4 mm Pyrex glass tube sealed with parafilm at an ambient temperature. ^31P spectra were collected with 512∼1000 scans and a recycle delay of 2 s. The spectra were referenced externally to 85% phosphoric acid (0 ppm).
^31P solid-state NMR experiments were performed using the Agilent NMR spectrometer (DD2) functioning at the resonance frequency of 283.31 MHz for ^31P and 699.88 MHz for ^1H, equipped with a 4 mm MAS HXY Solid Probe. MLVs were prepared by dissolving POPC, POPE, and ERG (5:4:3) in chloroform to obtain a stock of 5 mg/ml. The lipid mixtures were dried under nitrogen gas, lyophilized overnight followed by dissolving the lipid film in Tris buffer (pH 7.4), and hydrated for 1 h by vortexing occasionally and freeze–thawing five times. A single 90◦ pulse and 24 kHz TPPM proton decoupling were used. The π/2 pulse lengths were set at 6.8 μs for the ^31P nucleus. MLVs were kept in a 4 mm Pyrex glass tube, which was fit into the MAS probe, and sealed with parafilm. […] MestReNova software (version 8.1) with 250 Hz line broadening was used for spectra processing.
The subject of series [11] is C. albicans ocular clinical isolates. It is filed as cell-based, Candida albicans. The conditions noted are these: 48 h. As to the method:
as §1

The test system of a further series is chorioallantoic membrane. The arrangement: species or system hen. As to the method: as §2
Cell culture and in vitro scratch assay […]
SA-XV was added directly onto the chorioallantoic
M sodium hydroxide solution.

Protocol for F. solani: C57BL/6 mice (6–8 weeks old) were anesthetized by intraperitoneal injection using ketamine (8.7 mg/ml) and xylazine (0.5 mg/ml) at a dose of 120 μl/g body weight. While anesthetized, the corneal epithelium was abraded with three parallel vertical and horizontal scratches with a 26-gauge needle, and F. solani (10^7 conidia in 2.5 μl) were added in one eye, whereas the fellow eye received 1× PBS (n = 5). […] One more group of mice (n = 5) was infected with F. solani followed by topical application of AmpB (5 μg) at 0 and 6 h postinfection. Mice were euthanized and examined under a stereomicroscope for density and area of corneal opacification or ulceration 48 h postinfection and photographed using a digital camera. Clinical scores for the opacity were determined in a blinded fashion according to the scale earlier reported ([90]), eyes were enucleated and homogenized using a tissue homogenizer (Ez-Lyzer; Genetix Biotech) in sterile 1× PBS, and homogenates were plated on PDA plates for determining CFUs.

As for `C[C@@H]1[C@H](O)[C@@H](C)/C=C/C=C/C=C/C=C/C=C/C=C/C=C/[C@H](O[C@@H]2O[C@H](C)[C@@H](O)[C@H](N)[C@@H]2O)C[C@@H]2O[C@](O)(C[C@@H](O)C[C@@H](O)[C@H](O)CC[C@@H](O)C[C@@H](O)CC(=O)O[C@H]1C)C[C@H](O)[C@H]2C(=O)O` [AmpB, amphotericin B], the corneal opacification result with F. solani is “Distinct reduced opacification”. Moreover, the “RNA synthesis in vitro” value in series [1] was “did not show any appreciable effect”.
A word on the half-life: it is the time in which the quantity being followed falls by half. High values mean slow decline, low ones rapid decline. The MIC90 is the lowest concentration that inhibits either 90% of growth or 90% of the strains tested, depending on the study. High values mean weaker potency, low ones greater potency. The IC50 is the concentration at which inhibition is half-maximal. In the series “in vitro [2]”, VAIALKAAHYHTHKE [SA-XV] displayed a half-life at 1 mg/ml of over 3 h. The “dye leakage from fungal-membrane liposomes” value in series [3] was “Increased dye leakage”. Besides, the MIC90 in the series on Fusarium solani and in the series on Candida albicans was 15 µM each time. For the same molecule, the “% Growth Inhibition by SA-XV (60 μM)” value in series [4] and in [11] was 99.99% throughout. Also, the cytotoxicity entry in [5], in [6] and in [9] was “did not show any substantial cytotoxicity” in each case. The “histopathology of corneal sections” value in series [7] is listed as “no damages or abnormalities”. For the same molecule, the corneal findings result in series [7] (peptide four times at 3 h interval for 2 days, no edema or hyperemia) was “no corneal erosions or opacity”. Besides, in “in vitro [8]”, the IC50 at 24 h stood at 302 µM. Besides, the “translocation into fungal cells” value in the series on C. albicans is “translocates”. In addition, the “inhibition of biofilm formation” value with C. albicans biofilm is given as “more than 70%”. Further, the “penetration into HCECs” value with HCECs was “to some extent”. Further, the figures for the “chemical shift anisotropy span” value in series [10] (1 mol% peptide) and in [10] (3 mol% peptide) were 44.6 ppm and 46.4 ppm, respectively. Further, in the series on chorioallantoic membrane, the irritation effect entry was “nonirritant”.
